# From BindingDB's records for doi:10.1016/j.jmb.2008.04.054 (Gilead Sciences, 2008)
# Target: T1, Gag-Pol polyprotein [1148-1435] (Human immunodeficiency virus 1, UniProt P04585)
# T1 construct: 1148-1435
# Assay: Integrase 3-End Joining Assay
# Details: pH 7.3; 22 °C
# Experimental: In the 3-end joining assay, the biotinylated donor DNA was bound to streptavidin-coated plates, and integrase was added to each well to allow processing of the donor DNA. Serially diluted compounds and DIG-tagged target DNA were then added to each well, and 3-end joining reaction was allowed to proceed for 30 min. Signal was detected using horseradishperoxidase-conjugated anti-Digoxin antibody through chemiluminescence measurement.
row,Structure (SMILES),IC50 [µM]
1,"COc1c2c(c(OC)c3ncccc13)C(=O)N(Cc1ccc(F)cc1)C2 [7-[(4-fluorophenyl)methyl]-5,9-dimethoxy-6H,7H,8H-pyrrolo[3,4-g]quinolin-8-one]",> 1000
2,COc1c2c(c(O)c3ncccc13)C(=O)N(Cc1ccc(F)cc1)C2,0.06
3,O=C(O)C(=O)CC(=O)c1cccc(Cc2ccccc2)c1 [(2Z)-4-(3-benzylphenyl)-2-hydroxy-4-oxobut-2-enoic acid],0.026
4,"CC[C@H](CO)n1cc(C(=O)O)c(=O)c2cc(Cc3cccc(Cl)c3F)ccc21 [6-[(3-chloro-2-fluorophenyl)methyl]-1-[(2R)-1-hydroxybutan-2-yl]-4-oxo-1,4-dihydroquinoline-3-carboxylic acid]",0.042
5,"COc1c2c(cc3ncccc13)C(=O)N(Cc1ccc(F)cc1)C2 [7-[(4-fluorophenyl)methyl]-5-methoxy-6H,7H,8H-pyrrolo[3,4-g]quinolin-8-one]",24
6,"O=C(NCc1ccc(F)cc1)c1nc(N2CCCCS2(=O)=O)c2cccnc2c1O [5-(1,1-dioxo-1,2-thiazinan-2-yl)-N-[(4-fluorophenyl)methyl]-8-hydroxy-1,6-naphthyridine-7-carboxamide]",0.044
